Results as given in patent US11123388B2, “Composition for preventing and treating inflammatory bowel disease” (GENUONE SCIENCES INC., priority 2015, dated 2021).
“And” between values parts separate entries of the source, which are not always exact repeats. Equal values may be shown once.

Key:
myeloperoxidase (MPO) = assay: Myeloperoxidase (MPO) activity in colon tissue, TNBS animal model; format: in vivo; conditions: TNBS mice, 200 mg/kg
Procedure: 6. Effect of Inhibiting Oxidative Stress Through Measurement of Myeloperoxidase (MPO) Activity
200 μL of lysis buffer was added to 100 mg of colon tissue collected at the time of autopsy and homogenized and the supernatant obtained by centrifugation at 10,000 rpm for 20 minutes was used. First, capture antibody of MPO was added into a 96-well ELISA plate and allowed to react overnight. The plate was washed 6 times with 1×PBS (PBS-T) containing 0.05% Tween-20, and blocked with 1× assay diluent solution containing 2% BSA at room temperature for 1 hour. […] With respect to the levels of reactions of the plate, the absorbance was measured at 450 nm using a microplate reader (TECAN, Gr, Austria).
To construct an experimental model of inflammatory bowel disease, 7-week old ICR female mice (25 g to 27 g) were purchased from DBL Co., Ltd. (Eumseong, Korea), and the mice were given ad libitum access to solid feeds and water and allowed to adapt to a controlled environment with constant humidity (50±10%), constant temperature (22±2° C.), and 12-hour light-dark cycle for 1 week. […] Each of their colons was excised from the cecum to the region immediately before the anus, and the length and external appearance of the excised colon were examined to determine the degree of weight loss, constipation, and intestinal edema, and the results were scored according to the criteria.

[1] = tested on: TNF-α production in LPS-treated macrophages; assay: Inhibition of LPS-induced TNF-α production in macrophages (ELISA); format: cell-based; conditions: Macrophage, LPS 1 μg/mL, read-out: Effect of inhibiting TNF-α (%)
Procedure: 4. Effect of Inhibiting TNF-α Production The macrophages (American Type Culture Collections, Rockville, Mass., USA) cultured in a 24-well plate were pretreated with LPS (1 μg/mL) for 1 hour, treated with a extract (100 μg/mL), 20 mM 5-ASA (100 μg/mL) and 20 μM dexamethasone, and cultured for 24 hours, and the supernatant of cell was used for the experiment. First, capture antibody of TNF-α was added into a 96-well ELISA plate and allowed to react overnight. The plate was washed 6 times with 1×PBS (PBS-T) containing 0.05% Tween-20, and blocked with 1× assay diluent solution containing 2% BSA at room temperature for 1 hour. The plate was washed 6 times with 1×PBS-T and the supernatant or TNF-α standard protein was added thereto and allowed to react at room temperature for 2 hours. The plate was again was washed 6 times with 1×PBS-T, detection antibody was added thereto, and allowed to react at room temperature for 2 hours. The plate was again was washed 6 times with 1×PBS-T, avidin-HRP solution was added thereto, and allowed to react at room temperature for 30 minutes. […] With respect to the levels of reactions of the plate, the absorbance was measured at 450 nm using a microplate reader (TECAN, Gr, Austria).

[2] = tested on: TNBS-induced Crohn's disease in ICR female mice; assay: Amelioration of Crohn's disease in TNBS animal model; format: in vivo
Procedure: 8. Effect of Ameliorating Crohn's Disease in TNBS Animal Model To construct an experimental model of inflammatory bowel disease, 7-week old ICR female mice (25 g to 27 g) were purchased from DBL Co., Ltd. (Eumseong, Korea), and the mice were given ad libitum access to solid feeds and water and allowed to adapt to a controlled environment with constant humidity (50±10%), constant temperature (22±2° C.), and 12-hour light-dark cycle for 1 week. […] The mice were fasted for 24 hours before injection of TNBS. […] The control drug (5-ASA) and extracts were dissolved in 0.5% carboxymethyl cellulose (CMC), and orally administered once daily for 5 days. The normal control group and the colitis-induced group were orally administered with 0.5% CMC. After 5 days of oral administration, mice were fasted until the next day and sacrificed. Each of their colons was excised from the cecum to the region immediately before the anus, and the length and external appearance of the excised colon were examined to determine the degree of weight loss, constipation, and intestinal edema, and the results were scored according to the criteria.

[3] = tested on: U937 cell adhesion to the HT-29 intestinal epithelial cells; assay: Inhibition of monocyte (U937) adhesion to TNF-α-stimulated intestinal epithelial cells (HT-29); format: cell-based, human; conditions: 5-ASA 20 mM (positive control), TNF-α 100 ng/mL, 24 h
Procedure: 3. Effect of Inhibiting Monocyte Adhesion Ability in Intestinal Epithelial Cells Human intestinal epithelial cell line HT-29 cells (American Type Culture Collections, Rockville, Mass., USA) and human monocyte cell line U937 cells (ATCC, Rockville, Mass., USA) were cultured in RPMI 1640 containing fetal bovine serum (FBS) and 1% penicillin/streptomycin, and the cell line was maintained under the environment of 95% air and 5% CO2 at 37° C. […] The HT-29 cells (2×10^6 cells/well), which were cultured in a 48-well plate for 24 hours, were simultaneously treated with a extract (100 μg/mL) while treating with TNF-α (100 ng/mL), and cultured for 24 hours. In particular, 20 mM 5-aminosalicylic acid (5-ASA) was used as the positive control. Then, HT-29 cells were co-cultured along with U937 cells (5×10^5 cells/well), which were labeled with BCECF/AM at 37° C. for 30 minutes. Unattached U937 cells were removed and washed twice with PBS. The HT-29 cells to which U937 cells were attached were dissolved using 0.1% Triton X-100 which was dissolved in 0.1 mol/L Tris. The fluorescence of these lysates was measured using the luminance at 485 nm and 520 nm using a microplate reader (TECAN, Gr, Austria).

[4] = tested on: NO production in HT-29 cells; assay: Inhibition of NO production in HT-29 cells (Griess); format: cell-based, human; conditions: 48 h
Procedure: 2. Effect of Inhibition of NO Production Human intestinal epithelial cell line HT-29 cells (American Type Culture Collections, Rockville, Mass., USA) were cultured in Dulbecco's Modified Eagle's Medium (DMEM) along with 10% Fatal bovine serum (FBS), 1% Antibiotic-Antimycotic (GIBCO, Cat No. 15240-062) in 100 mm/60.1 cm^2 culture dish at 37° C., 5% CO2 conditions. […] The supernatant of cell was collected and used as a sample for the test. The test analysis was performed using the Total NO/Nitrite/Nitrate ELISA kit (R&D systems, Cat. #KGE001) according to the manufacturer's manual. Briefly, the test was performed in the following sequence: the cell culture which was grown after treatment with the sample was dispensed into a 96-well plate in an amount of 50 μL/well, treated with Griess Reagent, reacted at room temperature for 10 minutes, and the absorbance was measured at 540 nm.

[5] = tested on: dextran sodium sulfate (DSS)-induced colitis in C57BL/6 female mice; assay: Amelioration of colitis in DSS animal model; format: in vivo; set-up: DAI (disease activity index): scale not given here; Colon Length: unit not given here
Procedure: 7. Effect of Ameliorating Colitis in DSS Animal Model To construct an experimental model of inflammatory bowel disease, 6-week old C57BL/6 female mice (17 g to 19 g) were purchased from DBL Co., Ltd. (Eumseong, Korea), and the mice were given ad libitum access to solid feeds and water and allowed to adapt to a controlled environment with constant humidity (50%), constant temperature (22° C.), and 12-hour light-dark cycle for 1 week. […] The control drug (5-ASA) and extracts were dissolved in 0.5% carboxymethyl cellulose (CMC), and then orally administered once daily for 7 days along with 3% dextran sodium sulfate (DSS), and the normal control group and the colitis-induced group were orally administered with 0.5% CMC. The colitis-induced group, the control drug-treated group, and the extract-treated group were given ad libitum access to 3% DSS for 1 week, and the normal control group was given ad libitum access to water. Then, the mice were sacrificed on the 8th day, and each of their colons was excised from the cecum to the region immediately before the anus, and the length and external appearance of the excised colon were examined to determine the degree of weight loss, diarrhea, and […], and the results were scored according to the criteria.

[6] = tested on: IL-6 production in LPS-treated macrophages; assay: Inhibition of LPS-induced IL-6 production in macrophages (ELISA); format: cell-based; conditions: LPS 1 μg/mL
Procedure: 5. Effect of Inhibiting IL-6 Production The macrophages (American Type Culture Collections, Rockville, Mass., USA) cultured in a 24-well plate were pretreated with LPS (1 μg/mL) for 1 hour, treated with a extract (50 μg/mL), 20 mM 5-ASA (50 μg/mL) and 20 μM dexamethasone, and cultured for 24 hours, and the supernatant was used for the experiment. First, capture antibody of IL-6 was added into a 96-well ELISA plate and allowed to react overnight. The plate was washed 6 times with 1×PBS (PBS-T) containing 0.05% Tween-20, and blocked with 1× assay diluent solution containing 2% BSA at room temperature for 1 hour. […] The plate was again was washed 6 times with 1×PBS-T, detection antibody was added thereto, and allowed to react at room temperature for 2 hours. The plate was again was washed 6 times with 1×PBS-T, avidin-HRP solution was added thereto, and allowed to react at room temperature for 30 minutes. The plate was again was washed 6 times with 1×PBS-T, a TMB substrate solution was added thereto and allowed to react at room temperature for final 30 minutes, and a reaction stopping solution (1 M H3PO4) was added thereto to stop the reaction. With respect to the levels of reactions of the plate, the absorbance was measured at 450 nm using a microplate reader (TECAN, Gr, Austria).

[7] = 200 mg/kg oral once daily 5 days, control drug 5-ASA 200 mg/kg, listed as Control drug-treated Group
[8] = 200 mg/kg oral once daily 5 days, control drug 5-ASA 200 mg/kg, listed as control-drug treated group
[9] = oral once daily 7 days, control drug 5-ASA 200 mg/kg, listed as Control drug-treated Group

With Nc1ccc(O)c(C(=O)O)c1 [5-ASA, 5-aminosalicylic acid] the “decrease of MPO activity compared to the Crohn's disease-induced group” value (myeloperoxidase (MPO)) was 15%, the inhibition at 20000 µM ([1]; 5-ASA 20 mM) was 11.1% and the “reduction of weight of colon per colon length compared to the Crohn's disease-induced group” value ([2]; 200 mg/kg) was “almost no difference”. The “Colon Length (cm)” value ([2]; 200 mg/kg oral once daily 5 days, control drug 5-ASA 200 mg/kg) was 8.33 ± 0.22 cm, the “Colon Length” value [2, 7] was 8.28 and 8.33 ± 0.22 and the “DAI (disease activity index)” value [2, 7] was 10.56 ± 1.40 and 8.20. The “Weight per Area (colon weight per colon length)” value (shortened to “Weight per Area”) [2, 7] was 67.67 ± 9.30 and 46.55, the “Colon Length” value [2, 8] was 8.27 and the “DAI (disease activity index)” value [2, 8] was 6.30. For the same molecule, the “Weight per Area” value [2, 8] was 48.66, the “effect of improvement of disease activity index compared to the Crohn's disease-induced group” value ([2]; 200 mg/kg, listed as Control drug-treated Group, 200 mg/kg) was 7% and 9% and the “difference in colon weight per colon length compared to the Crohn's disease-induced group” value ([2]; 5-ASA 200 mg/kg) was “about 6.5 mg/cm”. The “Effect of inhibiting adhesion (%)” value [3] was 24.48%, the inhibition at 20000 µM ([3]; Homo sapiens, read-out: Effect of inhibiting adhesion (%)) was 18.9% and the “inhibitory effect against NO production” value [4] was 37%. The “effect of improvement of disease activity index compared to the colitis-induced group” value [5] was 45%, the “increase of the colon length compared to the colitis-induced group” value [5] was 3.6% and the “recovery of intestinal mucosa (immunostaining of intestinal mucosal tissues)” value [5] was “partially restored”. For the same molecule, the “Colon Length” value [5, 9] was 5.42 and 5.77 and 5.45 and 5.31 ± 0.16, the “Colon Length (cm)” value [5, 9] was 5.42 cm and 5.31 ± 0.16 cm and the “DAI (disease activity index)” value [5, 9] was 4.50 and 7.48 and 6.88 ± 0.44 and 5.75 and 5.33. For the same molecule, the “Weight per Area” value [5, 9] was 30.66 ± 0.76 and 32.52 and 31.42, the “Effect of inhibiting IL-6 (%)” value ([6]; 5-ASA 20 mM) was 67.68% and 50.98% and the “Effect of inhibiting IL-6 (%)” value ([6]; 5-ASA 20 mM, listed as 5ASA) was 49.89% and 49.35%. It also gave an inhibition at 20000 µM ([6]; Macrophage, 5-ASA 20 mM, read-out: Effect of inhibiting IL-6 (%)) of 52.8%.

Molecule C[C@@H]1C[C@H]2[C@@H]3CCC4=CC(=O)C=C[C@]4(C)[C@@]3(F)[C@@H](O)C[C@]2(C)[C@@]1(O)C(=O)CO [Dexamethasone, dexamethasone] has an inhibition at 20 µM ([1]; dexamethasone 20 μM) of 38.5% and an inhibition at 20 µM ([6]; Macrophage, dexamethasone 20 μM, read-out: Effect of inhibiting IL-6 (%)) of 49.9%.
